One data set has as its target T1, yeast α-glucosidase (Saccharomyces cerevisiae, UniProt P53341).
T1 construct: purchased Sigma Aldrich G5003-100UN
Briefly: Inhibition of yeast α-glucosidase (p-nitrophenyl-α-D-glucopyranoside substrate, OD 405 nm). Type of data set: biochemical. As to conditions: for D.O. 405 nm / Inhibition (%): mean ± SEM; for IC50: mean ± standard error of the mean, n = 3-5, read-out: Yeast α-glucosidase inhibition, half-maximal inhibitory concentration (IC50). How it is done: The inhibition of α-glucosidase was evaluated using a previously adapted method. Briefly, a solution (25 µL) of tested samples in DMSO-H2O 1:1 was added to 150 µL of phosphate buffer (PBS, 67 mM, pH 6.8) and incubated at 37 °C for 10 min with 25 µL of reduced glutatione (3 mM in PBS) and 25 µL of α-glucosidase type I solution (0.2 U/mL in PBS, CAS G5003-100UN) (Sigma Aldrich, Toluca, Estado de México, Mexico). Subsequently, 25 µL of the substrate solution (23.2 mM p-nitrophenyl-α-D-glucopyranoside, CAS N1377-1G, in PBS) (Sigma Aldrich, Toluca, Estado de México, Mexico) was added, and the mixture was incubated at 37 °C for 15 min under shaking. The reaction mixture was stopped by the addition of a […] 1M solution (50 µL), followed by agitation for 5 min. […] The percentage of inhibition was calculated according to the following equation:Inhibition (%) = [(Acontrol − Asample)/Acontrol] × 100 where A is the absorbance at 405 nm of the sample and the control.
Table S5. Inhibition of yeast α-glucosidase. Determination of half-maximal inhibitory concentration […]
Values represent the mean of three to five independent experiments ± standard error of the mean.
Data were examined by analysis of variance (ANOVA) followed by Dunnett's test to determine groups with significant differences. Values of p ≤0.05 (*) and p ≤ 0.01 (**) were considered significant differences from the control.

Data set [1] relates to COS-7 monkey kidney fibroblast. Briefly: Sulforhodamine B assay, COS7 healthy cells. Type of data set: cell-based. As to conditions: 10 µM, vehicle DMSO, 48 h. A general note: Sulforhodamine B stains cellular protein and so reports cell mass.
The test system of data set [2] is PC-3 prostate cancer cells. Briefly: Sulforhodamine B antiproliferative assay, PC-3. As to conditions: PC-3, 10 µM, vehicle DMSO, 48 h, NA: no activity. Format: cell-based. As for the experimental part:
(§1) Antiproliferative activity was evaluated by Sulforhodamine B assay against colon cancer (HCT-15), breast cancer (MCF-7), leukaemia ([…]), central nervous system glial (U-251), and prostate cancer (PC-3) cell lines, which the National Cancer Institute supplied. The cell lines were cultured in RPMI-1640 medium supplemented with 10% fetal bovine serum, 2 mM L-glutamine, […] penicillin G, 100 µg/mL streptomycin sulfate, and 0.25 µg/mL amphotericin B Gibco (Thermo Fisher Scientific, Grand Island, NY, USA). They were incubated at 37 °C in an atmosphere of 5% CO2 and 95% humidity. For the assay, cells were suspended in a 0.1% trypsin-EDTA solution (Gibco). Cell viability was counted using a hematocytometer and diluted with medium to achieve the following densities: 5 × 10^4 cells/mL (SKLU-1, K562) and 7.5 × 10^4 cells/mL (U251, PC-3). […]
(§2) After 24 h, the cells were treated with 100 µL of the compounds to be evaluated, previously dissolved in RPMI-1640 medium and 1% DMSO, and then incubated for 48 h at 37 °C in a 5% CO2 atmosphere. […]
(§3) After 48 h, the adherent cells were fixed by adding 50 µL of a cold 50% (m/vol) […] solution and incubated at 4 °C for 60 min. […] The optical density of the treated samples was determined in a Bio Kinetics microplate reader at a wavelength of 515 nm (Synergy HT, BioTek, Winooski, VT, USA). […]

For data set [3], the system named is MCF-7 breast cancer cells. Briefly: Sulforhodamine B antiproliferative assay, MCF-7. Format: cell-based. As to conditions: MCF-7, 10 µM, vehicle DMSO, 48 h, NA: no activity. How it is done: as §1, §2, §3
The subject of a further data set is SKLU-1 lung cancer cells. Description: Sulforhodamine B antiproliferative assay, SKLU-1. As to conditions: SKLU-1, 10 µM, vehicle DMSO, 48 h, NA: no activity. Type of data set: cell-based. How it is done: as §1, §2, §3
Data set [4] relates to HCT-15 colon cancer cells. Briefly: Sulforhodamine B antiproliferative assay, HCT-15. Type of data set: cell-based. As to conditions: HCT-15, 10 µM, vehicle DMSO, 48 h, NA: no activity. How it is done: as §1, §2, §3
The nature of data set [5]: Solubility in polar solvents (observation). Type of data set: physicochemical.
The target of another data set is α-glucosidase. Also on record: method as in PMID 16387392, doi:10.1016/j.kjs.2024.100312. As to conditions: literature values for comparison; read-out: α-glucosidase inhibitory activity IC50; cited from earlier work.

A word on the inhibition: it is the drop in the measured response relative to a control, in per cent.

T1 sequence (P53341 whole entry): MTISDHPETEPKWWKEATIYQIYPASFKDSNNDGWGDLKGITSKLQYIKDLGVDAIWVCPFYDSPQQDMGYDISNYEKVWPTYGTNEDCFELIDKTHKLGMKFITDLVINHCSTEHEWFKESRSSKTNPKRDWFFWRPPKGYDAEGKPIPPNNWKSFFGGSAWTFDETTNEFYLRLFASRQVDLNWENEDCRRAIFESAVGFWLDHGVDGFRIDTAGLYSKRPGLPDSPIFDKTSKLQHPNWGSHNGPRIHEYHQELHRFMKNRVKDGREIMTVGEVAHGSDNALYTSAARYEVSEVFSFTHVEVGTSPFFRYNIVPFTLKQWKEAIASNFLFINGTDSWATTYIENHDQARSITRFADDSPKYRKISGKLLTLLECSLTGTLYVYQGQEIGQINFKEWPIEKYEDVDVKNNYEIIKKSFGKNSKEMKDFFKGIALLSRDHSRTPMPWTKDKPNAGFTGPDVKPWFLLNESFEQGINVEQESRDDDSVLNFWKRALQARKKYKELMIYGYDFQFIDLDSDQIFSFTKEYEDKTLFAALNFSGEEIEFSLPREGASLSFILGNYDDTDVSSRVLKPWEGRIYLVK

Molecule `OC[C@H]1O[C@@H]2O[C@H]3[C@H](O)[C@@H](O)[C@@H](O[C@H]4[C@H](O)[C@@H](O)[C@@H](O[C@H]5[C@H](O)[C@@H](O)[C@@H](O[C@H]6[C@H](O)[C@@H](O)[C@@H](O[C@H]7[C@H](O)[C@@H](O)[C@@H](O[C@H]8[C@H](O)[C@@H](O)[C@@H](O[C@H]1[C@H](O)[C@H]2O)O[C@@H]8CO)O[C@@H]7CO)O[C@@H]6CO)O[C@@H]5CO)O[C@@H]4CO)O[C@@H]3CO` [BCD, β-cyclodextrin] yielded an inhibition at 1 µM at yeast α-glucosidase of 0.2 ± 3.02%. This molecule also returned an inhibition at 10 µM on yeast α-glucosidase of 1.11 ± 4.12%. At yeast α-glucosidase, this molecule had an inhibition at 100 µM of 2.31 ± 3.94%. Moreover, the “D.O. 405 nm” value at yeast α-glucosidase (1 µM) is on record as 1.275±0.028; at yeast α-glucosidase (10 µM) it was 1.261±0.022; at yeast α-glucosidase (100 µM), 1.246±0.019.

As to `O=C(/C=C(O)/C=C/C=C/c1ccccc1)/C=C/C=C/c1ccccc1` [Compound 2], the “Cellular growth inhibition (%)” value in data set [1] is given as 7.35%. In addition, the inhibition at 10 µM worked out at 11.8% in data set [2] (read-out: Cellular growth inhibition (%)); 7.61 ± 2.8% against yeast α-glucosidase; 11.5% in data set [3] (Homo sapiens, MCF7, read-out: Cellular growth inhibition (%)); 7.45% in the data set on SKLU-1 lung cancer cells (Homo sapiens, SK-LU-1, read-out: Cellular growth inhibition (%)); 15.9% in data set [4] (Homo sapiens, read-out: Cellular growth inhibition (%)). At yeast α-glucosidase, 17.78 µM produced 16.9 ± 3.75% inhibition. On yeast α-glucosidase, this molecule yielded an inhibition at 31.62 µM of 31.6 ± 6.86%. This molecule had an inhibition at 56.23 µM against yeast α-glucosidase of 66.3 ± 10.2%. The molecule also gave an inhibition at 100 µM at yeast α-glucosidase of 86.9 ± 7.53%. For the same molecule, the “D.O. 405 nm” value on yeast α-glucosidase (10 µM) is 1.205±0.051; on yeast α-glucosidase (17.78 µM), 1.084±0.067; on yeast α-glucosidase (31.62 µM), 0.894±0.105; on yeast α-glucosidase (56.23 µM), 0.446±0.147; on yeast α-glucosidase (100 µM) it was 0.174±0.105. Besides, at yeast α-glucosidase, the IC50 was 45.6 µM. Moreover, the “Solubility in polar solvents (in words)” value in data set [5] is recorded as “poor solubility”.

As to `O=C(C=CC=Cc1ccccc1)C=C([O-])C=CC=Cc1ccccc1.O=C(C=CC=Cc1ccccc1)C=C([O-])C=CC=Cc1ccccc1.[Cu+2]` [Compound 3], the “Cellular growth inhibition (%)” value in data set [1] was determined as 15.49%; in data set [2], 1.95%; in data set [3] it was 12.35%; with SKLU-1 lung cancer cells, 0.58%; in data set [4], 12.04%. For the same molecule, the “α-glucosidase inhibitory activity (in words)” value on yeast α-glucosidase is “no inhibition activity at high concentrations”. The “D.O. 405 nm” value at yeast α-glucosidase (1 µM) is recorded as 1.314±0.041; at yeast α-glucosidase (10 µM), 1.226±0.025; on yeast α-glucosidase (100 µM), 1.071±0.044. Besides, the “Inhibition (%)” value was -2.68±1.55% at yeast α-glucosidase (1 µM), 4.11±1.43% at yeast α-glucosidase (10 µM) and 16.19 ± 3.18% on yeast α-glucosidase (100 µM). Further, the IC50 on yeast α-glucosidase was over 100 µM. Further, the “Solubility in polar solvents (in words)” value in data set [5] is given as “poor solubility”.

At yeast α-glucosidase, `O=c1c(O)c(-c2ccc(O)c(O)c2)oc2cc(O)cc(O)c12` [Quercetin, quercetin, reference compound] returned an inhibition at 5.62 µM of 6.31 ± 2.5%. In addition, the inhibition at 10 µM against yeast α-glucosidase amounted to 16.2 ± 2.95%. This molecule had an inhibition at 17.78 µM at yeast α-glucosidase of 36.9 ± 1.16%. At yeast α-glucosidase, this molecule showed an inhibition at 31.62 µM of 59.1 ± 0.88%. Also, 56.23 µM produced 72.2 ± 1.55% inhibition against yeast α-glucosidase. The “D.O. 405 nm” value is given as 1.276±0.063 at yeast α-glucosidase (5.62 µM); 1.142±0.064 on yeast α-glucosidase (10 µM); 0.861±0.044 on yeast α-glucosidase (17.78 µM); 0.556±0.019 on yeast α-glucosidase (31.62 µM); 0.376±0.016 at yeast α-glucosidase (56.23 µM).

As for `O=C(/C=C/c1ccc(O)cc1)CC(=O)/C=C/c1ccc(O)cc1` [bisdemetoxicurcumin], the IC50 on α-glucosidase is 90.6 µM.

Consider `COc1cc(/C=C/C(O)=C/C(=O)/C=C/c2ccc(O)cc2)ccc1O` [demetoxicurcumin], for which, on α-glucosidase, the IC50 was 82.4 µM.

Values taken from PMC12526022, “Synthesis of First Copper Metal Complex of C=C Extended Curcuminoid Analogue: Structure, β-Cyclodextrin Association, and Biological Properties” (Molecules, 2025).
